From US7175855B1, “Ziprasidone suspension” (Pfizer Inc., priority 1999, dated 2007)

Test: Ability of surfactants to wet ziprasidone HCl monohydrate in water (drug wetting time)
Assay type: physicochemical
Description: Different surfactants were tested for their ability to wet ziprasidone HCl monohydrate in water: sodium lauryl sulfate (SLS), MIGLYOL® (registered trademark of Dynamit Nobel Aktiengesellschaft, Germany) Triglyceride (810), and polysorbate-80. In three separate 100 mL volumes of water, each surfactant listed above was added in an amount to make a 1% solution. MIGLYOL® was added in excess due to its low solubility. While stirring at 200 rpm with an overhead stirrer, to each of the three surfactant solutions was added 1.132 g of ziprasidone […] (equivalent to 10 mgA/ml).

CCCCCCCCCCCCOS(=O)(=O)[O-].[Na+] [SLS, sodium lauryl sulfate]
observed rate of wetting (1% surfactant solution in 100 mL water (MIGLYOL in excess), 1.132 g ziprasidone (10 mgA/ml), stirring at 200 rpm): >20 min | foaming during wetting (in words) (wetting agents tested with ziprasidone hydrochloride in water): caused foaming before adequate wetting could be obtained
